Measured values from US20060166901A1, “Compositions comprising O-acetylsalicyl derivatives of aminocarbohydrates and amino acids” (priority 2005, published 2006).

Key:
[1] = patients, recent studies; cited from earlier work
[2] = test system: osteoarthritis of both knees; test: Oral administration to a subject with osteoarthritis of both knees, relief of knee pain and adverse reactions; type: in vivo, human; conditions: earlier treatment
Procedure: The subject took an oral dose of 100 mg N—(O-acetylsalicyl)-L-tyrosine ethyl ester.
Subject, weight 90 kg, had 4 year history of osteoarthritis of both knees which was confirmed by X-ray and MRI showing diminished articular space. Symptoms of pain upon walking and at rest, as well as tenderness to palpation, had been consistently present, varying in intensity from moderate to severe.
[…] […] The subject did intensive physical activities during the next 10 hours that consisted of farming manual labor that included climbing up and down the banks of a pond to cut off cattail weeds at root level, and manually carrying stalks up the pond bank to level ground. Other physical exertions included numerous mounting and demounting from a farm tractor that pulled a trailer containing cattail weeds to dumping sites.

[3] = nonsteroidal anti-inflammatory agents

| Compound | rates of heart attack (cardiac arrest) versus the control group [1] | relief of osteoarthritis symptoms (subject's history) [2, 3] | also measured |
| --- | --- | --- | --- |
| Cc1ccc(-c2cc(C(F)(F)F)nn2-c2ccc(S(N)(=O)=O)cc2)cc1 [celecoxib] | higher rates of heart attack |  |  |
| CC(C)Cc1ccc(C(C)C(=O)O)cc1 (centres unmarked) [ibuprofen] |  | had not been relieved |  |
| COc1ccc2cc([C@H](C)C(=O)O)ccc2c1 [naproxen] |  | had not been relieved |  |
| C[C@]12C=CC(=O)C=C1CC[C@@H]1[C@@H]2C(=O)C[C@@]2(C)[C@H]1CC[C@]2(O)C(=O)CO [prednisone] |  |  | relief of osteoarthritis symptoms (subject's history) ([2]; oral, 10-30 mg daily): relieved incompletely |
| CS(=O)(=O)c1ccc(C2=C(c3ccccc3)C(=O)OC2)cc1 [rofecoxib, Rofecoxib] | higher rates of heart attack |  |  |
